Where two headings read alike, the source gives them in different places.
Tests used:
CA-IX [1] = target: T1, CA-IX (Homo sapiens, UniProt Q16790); assay: Binding affinity (Kd) determination for CA-IX inhibitors, DNSA fluorescence competition assay, Scatchard plots; conditions: Table 3
T1 construct: His tag (C); purchased R&D Systems Inc. 2188-CA; host or cells: mouse myeloma cell line NS0
Description: General. […] The human red blood cells were obtained from Research Blood Components, LLC. All absorbance measurements were performed on a SPECTRA MAX M2 plate reader at 25° C. The LC/MS analyses were performed on an Agilent 1100 series LC/MSD (SL) using a 30×2.1 mm Zorbax C8 column with a Phenomenex C18 pre-column. Compound detection was accomplished by electrospray mass spectroscopy in positive selected ion mode (LC/MS-SIM). The elution solvents were acetonitrile and water, contained 0.05% TFA. Nuclear magnetic resonance (NMR) spectra were obtained on a Bruker AMX 300 MHz spectrometer or a Varian 400. 19F NMR spectra were recorded on a Bruker AMX 282.35 MHz or a Varian 400 spectrometer. The mass spectra were recorded on an Agilent 1100 series LC/MSD with electrospray mass spectroscopic detection. Flash column chromatography was performed on Merck silica gel (40-63 μm) using the solvent system indicated. The radiochemical and chemical purities were analyzed by RP-HPLC.
General Procedure of Binding Affinity (Ka) Determination for CA-IX Inhibitors
The assay was based on the observation that the only fluorescence signal detected at 460 nm upon excitation at 290 nm, an absorption […] for DNSA, was that of the DNSA.CA complex. […] The latter were developed for each test compound using mass balance for calculating the concentration of CA bound to DNSA [DNSA.CA], bound to the non-fluorescent sample [CA.Inh] and free CA [CA] in solution. The Kd values were determined from Scatchard plots using the equation below as described by Whitesides et al. [CA.Inh]/[CA]tot.[Inh]=K11^inh−K11^inh{[CA.Inh]+[CA.DNSA]}/([CA]tot)
The terms [CA.DNSA], [CA.Inh], and free CA were calculated using the mass balance based on the known values for the dissociation constant of CA.DNSA and the total concentration of CA in each reaction.

CA-IX [2] = target: T1, CA-IX; assay: CA-IX combinatorial library screening, competitive fluorescence-based assay with dansylamide (DNSA); format: binding; conditions: sample concentrations 100 nM and 1000 nM, DNSA 200 μM, screening at 1 μM; for inhibition at 1 µM: 1 h
In short: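 Recombinant His-tagged CA-IX (NS0-expressed) in phosphate buffer pH 7.4 with test compound at 100 nM or 1000 nM; competitive displacement started with 200 μM dansylamide (stock concentration). After 1 h at 25 °C, fluorescence read at 460 nm (excitation 290 nm).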

[3] = Table 2, Libraries 4-7, read-out: In Vitro Binding Assay (Library (Screening))
[4] = Table 1, Libraries 1-3, read-out: In Vitro Binding Assay (Library Screening)

Row | Kd (CA-IX [1]) [nM] | SMILES | further results
1 | 1.7 | COC(=O)[C@H](Cc1ccc(C(F)(F)F)cc1)NC(=O)[C@H](C(C)C)n1cc(COc2ccc3nc(S(N)(=O)=O)sc3c2)nn1 [BW-96, (S)-methyl 2-((S)-3-methyl-2-(4-((2-sulfamoylbenzo[d]thiazol-6-yloxy)methyl)-1H-1,2,3-triazol-1-yl)butanamido)-3-(4-(trifluoromethyl)phenyl) propanoate] | –
2 | 14 | NS(=O)(=O)c1nc2cc(OCc3cn(CC(=O)NCCCOCCOCCOCCCNC(=O)c4ccc(C(=O)O)c(-c5c6ccc(=O)cc-6oc6cc(O)ccc56)c4)nn3)ccc2s1 [WZ01101] | –
3 | 2 | NS(=O)(=O)c1nc2ccc(OCc3cn([C@@H](Cc4ccc(OCC(O)CF)cc4)C(=O)N[C@@H](Cc4ccc(C(F)(F)F)cc4)C(=O)O)nn3)cc2s1 (stereo partly drawn) [DHK2-173, (2S)-2-((2S)-3-(4-(3-fluoro-2-hydroxypropoxy)phenyl)-2-(4-((2-sulfamoylbenzo[d]thiazol-6-yloxy)methyl)-1H-1,2,3-triazol-1-yl)propanamido)-3-(4-(trifluoromethyl)phenyl)propanoic acid] | –
4 | 25 | NS(=O)(=O)c1nc2ccc(OCc3cn(CC(=O)NC(COCc4cccc(OCCNC(=O)CCC(=O)O)c4)C(=O)O)nn3)cc2s1 (stereo not shown) [DHK3-154] | –
5 | 2 | COC(=O)[C@H](Cc1ccc(C(F)(F)F)cc1)NC(=O)[C@H](Cc1ccc(OCCF)cc1)n1cc(COc2ccc3nc(S(N)(=O)=O)sc3c2)nn1 [DHK2-127, (S)-methyl 2-((S)-3-(4-(2-fluoroethoxy)phenyl)-2-(4-((2-sulfamoylbenzo[d]thiazol-6-yloxy)methyl)-1H-1,2,3-triazol-1-yl)propanamido)-3-(4-(trifluoromethyl)phenyl)propanoate] | –
6 | 11 | CC(C)[C@H](C(=O)N[C@H](Cc1ccc(OCC(O)CF)cc1)C(=O)O)n1cc(COc2ccc3nc(S(N)(=O)=O)sc3c2)nn1 (single isomer, unassigned) [VM4047b] | –
7 | 5 | NS(=O)(=O)c1nc2cc(OCc3cn(C(CCO)C(=O)NC(CSCc4cccc(OCCF)c4)C(=O)O)nn3)ccc2s1 (single isomer, unassigned) [VM2-107b] | –
8 | 10 | NS(=O)(=O)c1nc2cc(OCc3cn(C(CCO)C(=O)NC(CSCc4cccc(OCCF)c4)C(=O)O)nn3)ccc2s1 (single isomer, unassigned) [VM2-107a] | –
9 | 10 | NS(=O)(=O)c1nc2ccc(OCc3cn(CC(=O)N[C@H](CSCc4cccc(OCCn5cc(CCCF)nn5)c4)C(=O)O)nn3)cc2s1 [BW2-27, (S)-3-(3-(2-(4-(3-fluoropropyl)-1H-1,2,3-triazol-1-yl)ethoxy)benzylthio)-2-(2-(4-((2-sulfamoylbenzo[d]thiazol-6-yloxy)methyl)-1H-1,2,3-triazol-1-yl)acetamido)propanoic acid] | –
10 | 5 | CC(C)[C@@H](C(=O)N[C@H](Cc1ccc(C(F)(F)F)cc1)C(=O)O)n1cc(COc2ccc3nc(S(N)(=O)=O)sc3c2)nn1 [DHK2-160-F2] | –
11 | 5 | NS(=O)(=O)c1nc2cc(OCc3cn(CC(=O)N[C@@H](CSCc4cccc(OCCF)c4)C(=O)O)nn3)ccc2s1 [VM2-41] | –
12 | 5 | COC(=O)C[C@H](NC(=O)[C@H](C(C)C)n1cc(COc2ccc3nc(S(N)(=O)=O)sc3c2)nn1)c1ccc(C(F)(F)F)cc1 [DHK2-130] | –
13 | 5 | CCOC(=O)C1CCN(C(=O)[C@H](Cc2ccc(OCCF)cc2)n2cc(COc3ccc4nc(S(N)(=O)=O)sc4c3)nn2)CC1 [DHK2-118] | –
14 | 3.3 | NS(=O)(=O)c1nc2ccc(OCc3cn(CC(=O)N[C@@H](Cc4ccc(OCCF)cc4)C(=O)O)nn3)cc2s1 [UG3150, (S)-3-(4-(2-fluoroethoxy)phenyl)-2-(2-(4-((2-sulfamoylbenzo[d]thiazol-6-yloxy)methyl)-1H-1,2,3-triazol-1-yl)acetamido)propanoic acid] | –
15 | 2 | NS(=O)(=O)c1nc2ccc(OCc3cn([C@@H](Cc4ccc(OCCF)cc4)C(=O)NC(Cc4cccc(C(F)(F)F)c4)C(=O)O)nn3)cc2s1 (stereo partly shown) [DHK2-181] | –
16 | 14 | NS(=O)(=O)c1nc2ccc(OCc3cn([C@@H](Cc4ccc(OCCF)cc4)C(=O)N[C@@H](Cc4c[nH]c5ccccc45)C(=O)O)nn3)cc2s1 [DHK2-180] | –
17 | 10 | CC(C)[C@@H](C(=O)N1CCC(C(=O)O)CC1)n1cc(COc2ccc3nc(S(N)(=O)=O)sc3c2)nn1 [DHK2-84] | –
18 | 5 | COC(=O)[C@@H](CSCc1cccc(OCCOCCOCCF)c1)NC(=O)Cn1cc(COc2ccc3nc(S(N)(=O)=O)sc3c2)nn1 [BW2-41, (S)-methyl 3-(3-(2-(2-(2-fluoroethoxy)ethoxy)ethoxy)benzylthio)-2-(2-(4-((2-sulfamoylbenzo[d]thiazol-6-yloxy)methyl)-1H-1,2,3-triazol-1-yl)acetamido)propanoate] | –
19 | 20 | NS(=O)(=O)c1nc2ccc(OCc3cn([C@@H](CCCCNC(=O)CCC(=O)O)C(=O)NCc4ccc(C(F)(F)F)cc4)nn3)cc2s1 [BD2-47, (S)-4-oxo-4-(6-oxo-5-(4-((2-sulfamoylbenzo[d]thiazol-6-yloxy)methyl)-1H-1,2,3-triazol-1-yl)-6-(4-(trifluoromethyl)benzylamino)hexylamino)butanoic acid] | –

Row | Kd (CA-IX [1]) [nM] | SMILES | further results
20 | 10 | N[C@@H](CO)C(=O)NCCOc1cccc(COC[C@H](NC(=O)Cn2cc(COc3ccc4nc(S(N)(=O)=O)sc4c3)nn2)C(=O)O)c1 [VM3-163, (S)-3-(3-(2-((S)-2-amino-3-hydroxypropanamido)ethoxy)benzyloxy)-2-(2-(4-((2-sulfamoylbenzo[d]thiazol-6-yloxy)methyl)-1H-1,2,3-triazol-1-yl)acetamido)propanoic acid] | –
21 | 1.7 | CC(C)[C@@H](C(=O)N[C@@H](CC(=O)O)c1ccc(C(F)(F)F)cc1)n1cc(COc2ccc3nc(S(N)(=O)=O)sc3c2)nn1 [DHK2-133] | –
22 | 5 | NS(=O)(=O)c1nc2ccc(OCc3cn(C(Cc4ccc(F)cc4)C(=O)NC(COCc4cccc(OCCO)c4)C(=O)O)nn3)cc2s1 (single isomer, unassigned) [VM3-167A] | –
23 | 1.2 | COC(=O)[C@H](Cc1ccc(C(F)(F)F)cc1)NC(=O)[C@H](C(C)C)n1cc(COc2ccc3nc(S(N)(=O)=O)sc3c2)nn1 [DHK2-129] | –
24 | 5 | NS(=O)(=O)c1nc2ccc(OCc3cn(CC(=O)N[C@@H](Cc4ccc(OCC(O)CF)cc4)C(=O)O)nn3)cc2s1 (stereo partly drawn) [VM4041, (S)-3-(4-(3-fluoro-2-hydroxypropoxy)phenyl)-2-(2-(4-((2-sulfamoylbenzo[d]thiazol-6-yloxy)methyl)-1H-1,2,3-triazol-1-yl)acetamido)propanoic acid] | –
25 | – | CC(C)[C@@H](C(=O)NCc1ccc(C(F)(F)F)cc1)n1cc(-c2ccc(S(N)(=O)=O)cc2)nn1 [DHK168] | inhibition at 1 µM (CA-IX [2]; [3]): < 40%
26 | – | NS(=O)(=O)c1nc2ccc(OCc3cn(CC(=O)N4CCN(c5cc(Cl)cc(Cl)c5)CC4)nn3)cc2s1 [DHK141] | inhibition at 1 µM (CA-IX [2]; [4]): < 40%
27 | – | CC(C)[C@@H](C(=O)NCC1COc2ccccc2O1)n1cc(-c2ccc(S(N)(=O)=O)cc2)nn1 (stereo partly shown) [DHK187] | inhibition at 1 µM (CA-IX [2]; [3]): < 40%
28 | – | CC(C)[C@@H](C(=O)NCc1ccc(C(F)(F)F)cc1)n1cc(COc2ccc3nc(S(N)(=O)=O)sc3c2)nn1 [DHK-2-24] | In Vitro Binding Assay (Library Screening) (CA-IX [2]; Table 2, Libraries 4-7): √ √
29 | – | NS(=O)(=O)c1nc2ccc(OCc3cn([C@@H](Cc4ccccc4)C(=O)NC4CCCCC4)nn3)cc2s1 [DHK-2-63] | inhibition at 1 µM (CA-IX [2]; [3]): < 40%
30 | – | NS(=O)(=O)c1ccc(-c2cn([C@@H](Cc3ccccc3)C(=O)NC3CCCCC3)nn2)cc1 [DHK-2-12] | inhibition at 1 µM (CA-IX [2]; [3]): < 40%
31 | – | NS(=O)(=O)c1ccc(-c2cn(CC(=O)NC(Cc3cnc[nH]3)C(=O)O)nn2)cc1 (stereo not shown) [DHK106] | inhibition at 1 µM (CA-IX [2]; [4]): < 40%
32 | – | Cc1ccc(CNC(=O)C(C(C)C)n2cc(CNC(=O)c3ccc(S(N)(=O)=O)cc3)nn2)cc1F (stereo not shown) [DHK49] | inhibition at 1 µM (CA-IX [2]; [4]): < 40%
33 | – | CC(C)[C@@H](C(=O)NCc1ccccc1)n1cc(COc2ccc3nc(S(N)(=O)=O)sc3c2)nn1 [DHK126] | inhibition at 1 µM (CA-IX [2]; [4]): < 40%
34 | – | CC(C)[C@@H](C(=O)N[C@@H]1c2ccccc2C[C@@H]1O)n1cc(COc2ccc3nc(S(N)(=O)=O)sc3c2)nn1 [DHK-2-43] | inhibition at 1 µM (CA-IX [2]; [3]): < 40%
35 | – | NS(=O)(=O)c1nc2ccc(OCc3cn([C@@H](Cc4ccccc4)C(=O)NCCCO)nn3)cc2s1 [DHK-2-65] | inhibition at 1 µM (CA-IX [2]; [3]): < 40%
36 | – | COC(=O)C(Cc1ccc(C(=O)O)cc1)n1cc(COc2ccc3nc(S(N)(=O)=O)sc3c2)nn1 (stereo not shown) [DHK129] | inhibition at 1 µM (CA-IX [2]; [4]): < 40%
37 | – | NS(=O)(=O)c1nc2ccc(OCc3cn(-c4ccnc5cc(Cl)ccc45)nn3)cc2s1 [DHK136] | inhibition at 1 µM (CA-IX [2]; [4]): < 40%
